# Measurements from ChEMBL document CHEMBL2321831, “Design, synthesis, and biological evaluations of novel 7-[7-amino-7-methyl-5-azaspiro[2.4]heptan-5-yl]-8-methoxyquinolines with potent antibacterial activity against respiratory pathogens” (J Med Chem, 2013).
# Key:
# [1] = Drug recovery in cynomolgus monkey urine at 10 mg/kg, iv after 24 hrs; assay type: ADME, organism-based, Macaca fascicularis; parameters: dose 10 mg/kg, route intravenous; settings: read-out: Drug recovery
# [2] = Cmax in Crj:CD rat serum at 5 mg/kg, po; assay type: ADME, organism-based; parameters: dose 5 mg/kg, route oral
# [3] = test system: Mycoplasmoides pneumoniae; test: Antibacterial activity against Mycoplasma pneumoniae ATCC 29085 after 18 hrs by microbroth dilution method; assay type: functional; settings: ATCC 29085, 18 h
# [4] = Primary phase half life in cynomolgus monkey serum at 10 mg/kg, iv; assay type: ADME, organism-based, Macaca fascicularis; parameters: dose 10 mg/kg, route intravenous; settings: read-out: alphat1/2 (converted)
# [5] = biological target: T1, hERG (KCNH2) (Homo sapiens, UniProt Q12809); test: Inhibition of human ERG expressed in CHOK1 cells at 100 uM; assay type: cell-based; settings: CHO-K1 cells expressing hERG
# T1 sequence (Q12809 whole entry): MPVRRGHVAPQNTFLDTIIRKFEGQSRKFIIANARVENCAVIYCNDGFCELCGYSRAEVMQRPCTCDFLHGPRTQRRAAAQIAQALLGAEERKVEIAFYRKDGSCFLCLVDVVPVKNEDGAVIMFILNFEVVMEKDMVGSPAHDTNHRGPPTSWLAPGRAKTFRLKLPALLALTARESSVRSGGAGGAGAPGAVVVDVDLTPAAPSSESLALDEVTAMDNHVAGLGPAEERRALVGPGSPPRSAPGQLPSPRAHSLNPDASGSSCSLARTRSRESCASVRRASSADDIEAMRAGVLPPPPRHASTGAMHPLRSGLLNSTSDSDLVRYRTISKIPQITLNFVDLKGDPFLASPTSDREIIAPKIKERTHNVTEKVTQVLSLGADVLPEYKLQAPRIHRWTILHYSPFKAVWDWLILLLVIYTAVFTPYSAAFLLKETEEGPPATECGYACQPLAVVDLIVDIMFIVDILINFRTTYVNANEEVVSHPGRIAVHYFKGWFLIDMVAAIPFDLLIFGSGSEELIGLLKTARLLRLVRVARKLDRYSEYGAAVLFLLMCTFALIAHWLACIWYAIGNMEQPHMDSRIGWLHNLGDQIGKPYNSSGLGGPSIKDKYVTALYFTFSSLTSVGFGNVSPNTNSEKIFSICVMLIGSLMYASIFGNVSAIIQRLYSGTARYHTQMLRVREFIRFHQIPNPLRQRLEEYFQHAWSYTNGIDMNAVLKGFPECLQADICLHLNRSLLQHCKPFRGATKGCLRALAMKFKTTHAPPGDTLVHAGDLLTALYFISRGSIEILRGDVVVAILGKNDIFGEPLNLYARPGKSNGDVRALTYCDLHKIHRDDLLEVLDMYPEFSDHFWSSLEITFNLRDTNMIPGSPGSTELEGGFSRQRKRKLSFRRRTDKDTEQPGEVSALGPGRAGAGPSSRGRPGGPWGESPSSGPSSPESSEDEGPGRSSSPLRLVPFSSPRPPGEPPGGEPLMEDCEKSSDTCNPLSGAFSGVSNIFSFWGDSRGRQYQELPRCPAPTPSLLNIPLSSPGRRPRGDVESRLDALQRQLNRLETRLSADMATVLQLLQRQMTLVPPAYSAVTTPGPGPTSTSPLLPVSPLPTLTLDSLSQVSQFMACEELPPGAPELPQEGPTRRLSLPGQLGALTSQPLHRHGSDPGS
# [6] = AUC (0 to 8 hrs) in Crj:CD rat serum at 5 mg/kg, po; assay type: ADME, organism-based; parameters: time < 8 hr, dose 5 mg/kg, route oral
# [7] = test system: Streptococcus pneumoniae; test: Antibacterial activity against penicillin-susceptible Streptococcus pneumoniae J24 after 18 hrs by microbroth dilution method; assay type: functional; settings: J24, 18 h
# [8] = test system: Staphylococcus aureus; test: Antibacterial activity against Staphylococcus aureus FDA 209-P after 18 hrs by microbroth dilution method; assay type: functional
# [9] = Drug recovery in cynomolgus monkey urine at 5 mg/kg, po after 24 hrs; assay type: ADME, organism-based, Macaca fascicularis; parameters: dose 5 mg/kg, route oral; settings: read-out: Drug recovery
# [10] = Drug recovery in Crj:CD rat urine at 5 mg/kg, po after 24 hrs; assay type: ADME, organism-based; parameters: dose 5 mg/kg, route oral; settings: read-out: Drug recovery
# [11] = AUC (0 to 8 hrs) in cynomolgus monkey serum at 10 mg/kg, iv; assay type: ADME, organism-based, Macaca fascicularis, Plasma; parameters: time < 8 hr, dose 10 mg/kg, route intravenous
# [12] = Cmax in cynomolgus monkey serum at 5 mg/kg, po; assay type: ADME, organism-based, Macaca fascicularis; parameters: dose 5 mg/kg, route oral
# [13] = test system: Pseudomonas aeruginosa; test: Antibacterial activity against Pseudomonas aeruginosa PAO1 after 18 hrs by microbroth dilution method; assay type: functional; settings: PAO1, 18 h
# [14] = test system: Klebsiella pneumoniae; test: Antibacterial activity against Klebsiella pneumoniae TYPE1 after 18 hrs by microbroth dilution method; assay type: functional; settings: TYPE1, 18 h
# [15] = Plasma protein binding in human at 10 ug/mL by ultrafiltration method; assay type: ADME, cell-free; settings: read-out: PPB (converted)
# [16] = test system: Enterococcus faecalis; test: Antibacterial activity against Enterococcus faecalis ATCC 19433 after 18 hrs by microbroth dilution method; assay type: functional; settings: ATCC 19433, 18 h
# [17] = AUC (0 to 8 hrs) in Crj:CD rat liver at 5 mg/kg, po; assay type: ADME, organism-based; parameters: time < 8 hr, dose 5 mg/kg, route oral
# [18] = test system: Staphylococcus aureus; test: Antibacterial activity against levofloxacin-resistant and methicillin-resistant Staphylococcus aureus 870307 after 18 hrs by microbroth dilution method; assay type: functional; settings: Staphylococcus aureus, 870307, 18 h
# [19] = test system: Chlamydia pneumoniae; test: Antibacterial activity against Chlamydophila pneumoniae AR39 after 18 hrs by microbroth dilution method; assay type: functional; settings: AR39, 18 h
# [20] = test system: Streptococcus pneumoniae; test: Antibacterial activity against quinolone, penicillin-resistant Streptococcus pneumoniae 104835 after 18 hrs by microbroth dilution method; assay type: functional; settings: Streptococcus pneumoniae, 104835, 18 h
# [21] = AUC (0 to 24 hrs) in cynomolgus monkey serum at 5 mg/kg, po; assay type: ADME, organism-based, Macaca fascicularis, Plasma; parameters: time < 24 hr, dose 5 mg/kg, route oral
# [22] = Drug uptake in cynomolgus monkey serum at 10 mg/kg, iv after 5 mins; assay type: ADME, organism-based, Macaca fascicularis; parameters: dose 10 mg/kg, route intravenous; settings: read-out: Drug uptake
# [23] = Half life in cynomolgus monkey serum at 5 mg/kg, po; assay type: ADME, organism-based, Macaca fascicularis; parameters: dose 5 mg/kg, route oral
# [24] = test system: Mycoplasmoides pneumoniae; test: Antibacterial activity against Mycoplasma pneumoniae 18-1 after 18 hrs by microbroth dilution method; assay type: functional; settings: 18-1, 18 h
# [25] = test system: Haemophilus influenzae; test: Antibacterial activity against Haemophilus influenzae ATCC 49247 after 18 hrs by microbroth dilution method; assay type: functional; settings: ATCC 49247, 18 h
# [26] = test system: Staphylococcus epidermidis; test: Antibacterial activity against Staphylococcus epidermidis 56500 after 18 hrs by microbroth dilution method; assay type: functional; settings: Staphylococcus epidermidis, 56500, 18 h
# [27] = AUC (0 to 8 hrs) in Crj:CD rat kidney at 5 mg/kg, po; assay type: ADME, organism-based; parameters: time < 8 hr, dose 5 mg/kg, route oral
# [28] = test system: Moraxella catarrhalis; test: Antibacterial activity against Moraxella catarrhalis ATCC 25238 after 18 hrs by microbroth dilution method; assay type: functional; settings: ATCC 25238, 18 h
# [29] = test system: Chlamydia pneumoniae; test: Antibacterial activity against Chlamydophila pneumoniae CM-1 after 18 hrs by microbroth dilution method; assay type: functional; settings: CM-1, 18 h
# [30] = AUC (0 to 8 hrs) in Crj:CD rat lung at 5 mg/kg, po; assay type: ADME, organism-based; parameters: time < 8 hr, dose 5 mg/kg, route oral
# [31] = test system: Streptococcus pneumoniae; test: Antibacterial activity against levofloxacin-intermediate and levofloxacin-resistant Streptococcus pneumoniae after 18 hrs by microbroth dilution method; assay type: functional
# [32] = test system: Bacillus subtilis; test: Antibacterial activity against Bacillus subtilis IID 685 after 18 hrs by microbroth dilution method; assay type: functional; settings: IID 685, 18 h
# [33] = test system: Streptococcus pyogenes; test: Antibacterial activity against Streptococcus pyogenes G-36 after 18 hrs by microbroth dilution method; assay type: functional; settings: G-36, 18 h
# [34] = biological target: T1, hERG (KCNH2); test: Inhibition of human ERG expressed in CHOK1 cells at 30 uM; assay type: cell-based; settings: CHO-K1 cells expressing hERG
# [35] = test system: Escherichia coli; test: Antibacterial activity against Escherichia coli NIHJ after 18 hrs by microbroth dilution method; assay type: functional
# [36] = Primary phase half life in cynomolgus monkey serum at 5 mg/kg, iv; assay type: ADME, organism-based, Macaca fascicularis; parameters: dose 5 mg/kg, route intravenous; settings: read-out: alphat1/2 (converted)
# [37] = Ratio of AUC (0 to 8 hrs) in Crj:CD rat kidney to AUC (0 to 8 hrs) in Crj:CD rat serum at 5 mg/kg, po; assay type: ADME, organism-based; parameters: dose 5 mg/kg, route oral; settings: read-out: Ratio AUC
# [38] = Drug recovery in cynomolgus monkey urine at 5 mg/kg, iv after 24 hrs; assay type: ADME, organism-based, Macaca fascicularis; parameters: dose 5 mg/kg, route intravenous; settings: read-out: Drug recovery
# [39] = AUC (0 to 8 hrs) in cynomolgus monkey serum at 5 mg/kg, iv; assay type: ADME, organism-based, Macaca fascicularis, Plasma; parameters: time < 8 hr, dose 5 mg/kg, route intravenous
# [40] = Ratio of AUC (0 to 8 hrs) in Crj:CD rat liver to AUC (0 to 8 hrs) in Crj:CD rat serum at 5 mg/kg, po; assay type: ADME, organism-based; parameters: dose 5 mg/kg, route oral; settings: read-out: Ratio AUC
# [41] = Aqueous solubility of the compound; assay type: physicochemical
# [42] = Bioavailability in cynomolgus monkey at 5 mg/kg, po; assay type: ADME, organism-based, Macaca fascicularis; settings: in vivo
# [43] = Plasma protein binding in human at 5 ug/mL by ultrafiltration method; assay type: ADME, cell-free; settings: read-out: PPB (converted)
# [44] = Drug uptake in cynomolgus monkey serum at 5 mg/kg, iv after 5 mins; assay type: ADME, organism-based, Macaca fascicularis; parameters: dose 5 mg/kg, route intravenous; settings: read-out: Drug uptake
# [45] = Ratio of AUC (0 to 8 hrs) in Crj:CD rat lung to AUC (0 to 8 hrs) in Crj:CD rat serum at 5 mg/kg, po; assay type: ADME, organism-based; parameters: dose 5 mg/kg, route oral; settings: read-out: Ratio AUC
# [46] = Chloroform-phosphate buffer apparent partition coefficient of the compound, P at pH 7.4
structure (smiles),measurement,setting,value
C[C@H]1COc2c(N3CCN(C)CC3)c(F)cc3c(=O)c(C(=O)O)cn1c23.C[C@H]1COc2c(N3CCN(C)CC3)c(F)cc3c(=O)c(C(=O)O)cn1c23.O [LEVOFLOXACIN],dose excreted at 24 h,[1],80.7%
same,Cmax,[2],1470 ng/mL
same,MIC,[3],1 µg/mL
same,half-life,[4],3.2 h
same,inhibition at 100 µM,[5],4.2%
same,AUC(0-t) at 8 h,[6],3410 ng·h/mL
same,MIC,[7],0.78 µg/mL
same,MIC,[8],0.1 µg/mL
same,dose excreted at 24 h,[9],73.9%
same,dose excreted at 24 h,[10],80%
same,AUC(0-t) at 8 h,[11],15500 ng·h/mL
same,Cmax,[12],1920 ng/mL
same,MIC,[13],0.39 µg/mL
same,MIC,[14],0.05 µg/mL
same,fraction unbound at 10 ug/mL,[15],0.678
same,MIC,[16],0.78 µg/mL
same,AUC(0-t) at 8 h,[17],16400 ng·h/mL
same,MIC,[18],> 6.25 µg/mL
same,MIC,[19],0.5 µg/mL
same,MIC,[20],> 6.25 µg/mL
same,AUC(0-t) at 24 h,[21],15200 ng·h/mL
same,concentration at 5 min,[22],4170 ng/mL
same,half-life,[23],3.5 h
same,MIC,[24],2 µg/mL
same,MIC,[25],0.012 µg/mL
same,MIC,[26],0.39 µg/mL
same,AUC(0-t) at 8 h,[27],19300 ng·h/mL
same,MIC,[28],0.025 µg/mL
same,MIC,[29],0.5 µg/mL
same,AUC(0-t) at 8 h,[30],5570 ng·h/mL
same,MIC50,[31],8 µg/mL
same,MIC80,[31],16 µg/mL
same,MIC90,[31],16 µg/mL
same,MIC,[32],1.56 µg/mL
same,MIC,[33],0.78 µg/mL
same,inhibition at 30 µM,[34],-0.9%
CC[C@H]1OC(=O)[C@H](C)[C@@H](O[C@H]2C[C@@](C)(OC)[C@@H](O)[C@H](C)O2)[C@H](C)[C@@H](O[C@@H]2O[C@H](C)C[C@H](N(C)C)[C@H]2O)[C@](C)(O)C[C@@H](C)CN(C)[C@H](C)[C@@H](O)[C@]1(C)O [AZITHROMYCIN],MIC50,[31],> 32 µg/mL
same,MIC80,[31],> 32 µg/mL
same,MIC90,[31],> 32 µg/mL
CC1(C)S[C@@H]2[C@H](NC(=O)Cc3ccccc3)C(=O)N2[C@H]1C(=O)O [PENICILLIN G],MIC50,[31],0.06 µg/mL
same,MIC80,[31],2 µg/mL
same,MIC90,[31],2 µg/mL
C[C@H]1NCc2cc(-c3ccc4c(=O)c(C(=O)O)cn(C5CC5)c4c3OC(F)F)ccc21 [GARENOXACIN],MIC,[3],0.06 µg/mL
same,MIC,[19],0.063 µg/mL
same,MIC,[24],0.12 µg/mL
same,MIC,[29],0.016 µg/mL
same,MIC50,[31],0.25 µg/mL
same,MIC80,[31],0.5 µg/mL
same,MIC90,[31],1 µg/mL
O=C(O)c1cn(C2CC2)c2cc(N3CCNCC3)c(F)cc2c1=O [CIPROFLOXACIN],MIC,[7],0.78 µg/mL
same,MIC,[13],0.05 µg/mL
same,MIC,[35],< 0.003 µg/mL
same,MIC,[18],> 6.25 µg/mL
same,MIC,[20],> 6.25 µg/mL
same,MIC,[25],0.006 µg/mL
same,MIC,[28],0.025 µg/mL
same,MIC50,[31],16 µg/mL
same,MIC80,[31],32 µg/mL
same,MIC90,[31],32 µg/mL
same,MIC,[32],3.12 µg/mL
same,MIC,[33],1.56 µg/mL
COc1c(N2C[C@@H](N)C3(CC3)C2)c(F)cc2c(=O)c(C(=O)O)cn([C@@H]3C[C@@H]3F)c12.Cl.O,Cmax,[2],816 ng/mL
same,half-life,[36],2.1 h
same,inhibition at 100 µM,[5],14.1%
same,AUC(0-t) at 8 h,[6],1590 ng·h/mL
same,MIC,[7],0.05 µg/mL
same,MIC,[8],0.012 µg/mL
same,dose excreted at 24 h,[9],41%
same,dose excreted at 24 h,[10],23.1%
same,Cmax,[12],1270 ng/mL
same,MIC,[13],0.2 µg/mL
same,MIC,[14],0.05 µg/mL
same,Kp,[37],12.2
same,AUC(0-t) at 8 h,[17],15000 ng·h/mL
same,MIC,[35],0.006 µg/mL
same,MIC,[18],0.39 µg/mL
same,MIC,[20],0.2 µg/mL
same,AUC(0-t) at 24 h,[21],9450 ng·h/mL
same,dose excreted at 24 h,[38],50.7%
same,AUC(0-t) at 8 h,[39],19400 ng·h/mL
same,Kp,[40],9.4
same,solubility,[41],446 µg/mL
same,bioavailability,[42],49%
same,half-life,[23],3.1 h
same,fraction unbound at 5 ug/mL,[43],0.582
same,concentration at 5 min,[44],4750 ng/mL
same,Kp,[45],4.3
same,MIC,[25],< 0.003 µg/mL
same,AUC(0-t) at 8 h,[27],19300 ng·h/mL
same,MIC,[28],0.012 µg/mL
same,AUC(0-t) at 8 h,[30],6770 ng·h/mL
same,MIC,[32],0.05 µg/mL
same,P,[46],8.8
same,MIC,[33],0.05 µg/mL
same,inhibition at 30 µM,[34],5.2%
